Common to all, as to assay type: cell-based
Test [1] relates to MHH-CALL-4 cells. Description: Cytotoxicity assay (resazurin, 72 hours). Also noted: AUC: unit not given beside the values. As to conditions: for EC50: MHHCALL4, resazurin; for AUC: area under the dose-response curve. How it is done: Cytotoxicity assay: MHH-CALL-4 cells were maintained in RPMI1640 medium (Invitrogen) supplemented with 10% FBS (Hyclone), Penicillin/Streptomycin (100 units/mL) and Glutamine (100 μM). 2×10^5 cells were seeded in 100 μl medium/well in 96 well assay plates (Corning 3603). Assays were performed in triplicate; compounds to be screened were added to assay plates from DMSO stock solutions by pin transfer using 50SS pins (V&P Scientific). The assay plates incubated at 37° C. in 5% CO2 for 72 hours. Cells were then incubated for four hours with resazurin (Sigma) solution and read on a Synergy HT plate reader (Biotek, Winooski, VT). High-throughput assay data was analyzed using our in-house Robust Interpretation of Screening Experiments (RISE) application written in Pipeline Pilot (Biovia, v. 17.2.0) and the R program (R Core Team, 2013). All the AUC (area under the dose-response curve) per compound calculated from its dose response curve by RISE protocol. Selected data were plotted and analyzed by GraphPad Prism software v7 using non-linear regression curve fitting.

For test [2], the target named is T1, JAK1 (Homo sapiens, UniProt P23458).
T1 construct: endogenous in cells; host or cells: MHH-CALL-4
T1 sequence (P23458 whole entry): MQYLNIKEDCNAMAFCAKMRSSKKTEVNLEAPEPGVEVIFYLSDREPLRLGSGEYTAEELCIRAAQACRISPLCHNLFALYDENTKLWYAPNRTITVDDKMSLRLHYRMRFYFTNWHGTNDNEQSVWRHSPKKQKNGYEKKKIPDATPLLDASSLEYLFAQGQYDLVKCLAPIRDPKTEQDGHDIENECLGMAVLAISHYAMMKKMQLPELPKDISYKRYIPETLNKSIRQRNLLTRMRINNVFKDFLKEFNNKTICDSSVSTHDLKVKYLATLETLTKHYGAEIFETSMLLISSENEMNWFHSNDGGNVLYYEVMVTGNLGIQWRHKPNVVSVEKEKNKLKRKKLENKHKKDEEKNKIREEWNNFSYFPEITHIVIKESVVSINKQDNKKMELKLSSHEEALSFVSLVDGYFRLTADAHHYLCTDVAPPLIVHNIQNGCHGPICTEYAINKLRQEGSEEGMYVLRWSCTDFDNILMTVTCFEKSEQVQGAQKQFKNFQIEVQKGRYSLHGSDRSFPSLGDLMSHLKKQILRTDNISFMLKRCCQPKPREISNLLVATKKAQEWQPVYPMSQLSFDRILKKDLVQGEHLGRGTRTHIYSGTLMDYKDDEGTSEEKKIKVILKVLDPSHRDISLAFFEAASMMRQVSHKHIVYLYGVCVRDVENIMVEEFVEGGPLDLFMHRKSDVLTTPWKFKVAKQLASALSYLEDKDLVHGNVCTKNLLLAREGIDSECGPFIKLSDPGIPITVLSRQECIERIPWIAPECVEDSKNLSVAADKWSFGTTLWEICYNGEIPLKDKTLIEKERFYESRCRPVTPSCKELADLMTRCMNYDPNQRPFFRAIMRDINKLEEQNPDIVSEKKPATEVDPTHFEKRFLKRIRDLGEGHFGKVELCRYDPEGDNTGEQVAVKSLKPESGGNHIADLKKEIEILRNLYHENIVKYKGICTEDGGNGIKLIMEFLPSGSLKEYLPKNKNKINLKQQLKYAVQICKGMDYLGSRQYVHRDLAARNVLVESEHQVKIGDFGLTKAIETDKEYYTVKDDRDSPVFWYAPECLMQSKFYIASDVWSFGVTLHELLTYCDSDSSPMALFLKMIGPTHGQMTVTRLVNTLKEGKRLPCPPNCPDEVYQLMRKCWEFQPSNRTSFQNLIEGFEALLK
The test is described as follows: Western blot assay, JAK1 protein degradation. As to conditions: MHH-CALL-4 cells, vehicle control = 100%. The procedure:
(§1) Western blot assay: MHH-CALL-4 Cells were washed twice with ice-cold PBS and lysed in RIPA lysis buffer (Sigma) freshly supplemented with Halt™ Protease Inhibitor Cocktail (ThermoFisher) for 15 minutes on ice. The cell pellet was removed by centrifugation at 13,000 g at 4° C. for 15 minutes. Protein concentration was measured by BCA assay (Thermo Fisher Scientific). Proteins were denatured in NuPAGE LDS 4× sample buffer supplemented with reducing agents (Invitrogen). Typically, 10-20 μg of total protein was loaded per lane on a 4%-12% NUPAGE Bis-Tris gradient gel (Invitrogen) and analyzed by standard immunoblotting and imaged using Li—COR Odyssey CLx (LI-COR Biotechnology, Lincoln, NE). To access the protein degradation, the signal of target protein was normalized by the signal of ACBT and the signal of vehicle control was set as 100%. Primary antibodies used were: JAK1 (Cell Signaling #3332S), JAK2 (#3230S), JAK3 (#8827S), TYK2 (#9312S), GSPT1 (#14980S), CRBN (#71810S), IKZF1 (Santa Cruz Biotechnology, SC-398265) and ACBT (Santa Cruz Biotechnology, SC-47778).

The subject of test [3] is JAK2. Description: Western blot assay, JAK2 protein degradation. As to conditions: MHH-CALL-4 cells, vehicle control = 100%. How it is done:
as §1

Test [4] concerns the target T2, JAK3 (Homo sapiens, UniProt P52333).
T2 construct: endogenous in cells; host or cells: MHH-CALL-4
T2 sequence (P52333 1-1124): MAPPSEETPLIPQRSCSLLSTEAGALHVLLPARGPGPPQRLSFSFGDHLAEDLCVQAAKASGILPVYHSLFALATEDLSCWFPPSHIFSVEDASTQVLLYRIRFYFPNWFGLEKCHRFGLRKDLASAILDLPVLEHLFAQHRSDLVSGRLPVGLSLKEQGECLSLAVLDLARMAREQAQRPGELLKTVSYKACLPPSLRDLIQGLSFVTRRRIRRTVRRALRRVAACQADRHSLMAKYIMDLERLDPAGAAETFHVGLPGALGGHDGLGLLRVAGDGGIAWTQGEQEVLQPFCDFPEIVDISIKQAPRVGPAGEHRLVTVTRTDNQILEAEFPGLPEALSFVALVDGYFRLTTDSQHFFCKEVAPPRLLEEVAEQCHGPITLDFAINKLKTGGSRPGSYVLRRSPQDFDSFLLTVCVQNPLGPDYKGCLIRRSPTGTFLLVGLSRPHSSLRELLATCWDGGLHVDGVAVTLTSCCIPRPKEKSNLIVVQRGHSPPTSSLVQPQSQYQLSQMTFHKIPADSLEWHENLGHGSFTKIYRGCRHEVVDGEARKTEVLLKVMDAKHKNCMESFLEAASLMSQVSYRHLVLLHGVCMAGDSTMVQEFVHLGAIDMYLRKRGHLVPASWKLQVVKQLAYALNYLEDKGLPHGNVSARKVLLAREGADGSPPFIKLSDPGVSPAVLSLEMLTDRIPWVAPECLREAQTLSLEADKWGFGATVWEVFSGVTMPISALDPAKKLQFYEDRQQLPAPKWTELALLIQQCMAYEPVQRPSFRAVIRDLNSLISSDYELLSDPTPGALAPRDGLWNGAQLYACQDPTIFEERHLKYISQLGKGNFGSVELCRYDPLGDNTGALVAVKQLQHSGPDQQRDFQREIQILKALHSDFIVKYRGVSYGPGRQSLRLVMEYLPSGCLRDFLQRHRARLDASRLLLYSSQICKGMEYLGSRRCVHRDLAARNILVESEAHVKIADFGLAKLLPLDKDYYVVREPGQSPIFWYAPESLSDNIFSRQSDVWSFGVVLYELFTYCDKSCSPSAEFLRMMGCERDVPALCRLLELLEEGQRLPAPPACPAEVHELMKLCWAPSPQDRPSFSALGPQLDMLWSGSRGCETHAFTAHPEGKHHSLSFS
The test is described as follows: Western blot assay, JAK3 protein degradation. As to conditions: MHHCALL4; 100 nM, 24 h; MHH-CALL-4 cells; vehicle control = 100%; read-out: Target Protein Degradation (% remaining at 100 nM, 24 h) JAK3. The procedure: as §1

The target of test [5] is T3, GSPT1 (Homo sapiens, UniProt P15170).
T3 construct: endogenous in cells; host or cells: MHH-CALL-4
T3 sequence (P15170 whole entry): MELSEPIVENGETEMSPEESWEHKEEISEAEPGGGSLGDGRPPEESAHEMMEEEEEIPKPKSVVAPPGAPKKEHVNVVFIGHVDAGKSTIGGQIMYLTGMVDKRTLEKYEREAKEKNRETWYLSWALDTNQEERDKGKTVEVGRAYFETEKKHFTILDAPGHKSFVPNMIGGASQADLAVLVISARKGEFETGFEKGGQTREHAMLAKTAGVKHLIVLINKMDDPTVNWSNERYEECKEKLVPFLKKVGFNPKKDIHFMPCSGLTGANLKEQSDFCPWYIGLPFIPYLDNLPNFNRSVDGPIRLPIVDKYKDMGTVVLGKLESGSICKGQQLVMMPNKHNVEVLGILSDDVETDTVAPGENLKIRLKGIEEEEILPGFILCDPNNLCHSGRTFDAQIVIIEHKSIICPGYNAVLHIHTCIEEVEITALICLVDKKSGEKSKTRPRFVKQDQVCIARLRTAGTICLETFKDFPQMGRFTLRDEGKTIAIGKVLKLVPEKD
The test is described as follows: Western blot assay, GSPT1 neosubstrate degradation. As to conditions: MHHCALL4; 100 nM, 24 h; MHH-CALL-4 cells; vehicle control = 100%. How it is done: as §1

The structures appear in SMILES notation.

For `CCS(=O)(=O)N1CC(CC#N)(n2cc(-c3nc(Nc4ccc(C(=O)NCCCN5CC6CCC(C5)N6c5ccc(C6CCC(=O)NC6=O)cc5)cc4)nc4[nH]ccc34)cn2)C1` (stereo not drawn) [Compound 55, 4-((4-(1-(3-(cyanomethyl)-1-(ethylsulfonyl)azetidin-3-yl)-1H-pyrazol-4-yl)-7H-pyrrolo[2,3-d]pyrimidin-2-yl)amino)-N-(3-(8-(4-(2,6-dioxopiperidin-3-yl)phenyl)-3,8-diazabicyclo[3.2.1]octan-3-yl)propyl)benzamide], in test [1], the EC50 worked out at 596 nM and the AUC is reported as 149. Moreover, the “Target Protein Degradation (% remaining at 100 nM, 24 h) JAK1” value in test [2] came to 113 % remaining. In test [3], the “Target Protein Degradation (% remaining at 100 nM, 24 h) JAK2” value is reported as 19 % remaining. Moreover, the remaining activity at 0.1 µM in test [4] was 44%. In test [5], the remaining activity at 0.1 µM came out at 75%.
In the case of `CCS(=O)(=O)N1CC(CC#N)(n2cc(-c3nc(Nc4ccc(C(=O)NCC5CCN(c6ccc7c(c6)C(=O)N(C6CCC(=O)NC6=O)C7=O)CC5)cc4)nc4[nH]ccc34)cn2)C1` (stereo not drawn) [Compound 31], in test [1], the EC50 was 2.1 nM and the AUC was found to be 260. Also, the “Target Protein Degradation (% remaining at 100 nM, 24 h) JAK1” value in test [2] stood at 58 % remaining. The “Target Protein Degradation (% remaining at 100 nM, 24 h) JAK2” value in test [3] is given as 18 % remaining. In addition, the remaining activity at 0.1 µM in test [4] was 54%. In addition, the remaining activity at 0.1 µM in test [5] came out at 61%.
Take `CCCn1cc(-c2nc(Nc3ccc(C(=O)NCCN4CCN(c5ccc6c(c5)C(=O)N(C5CCC(=O)NC5=O)C6=O)CC4)cc3)nc3[nH]ccc23)cn1` (stereo not drawn) [Compound 39, N-(2-(4-(2-(2,6-dioxopiperidin-3-yl)-1,3-dioxoisoindolin-5-yl)piperazin-1-yl)ethyl)-4-((4-(1-propyl-1H-pyrazol-4-yl)-7H-pyrrolo[2,3-d]pyrimidin-2-yl)amino)benzamide]: in test [1], the EC50 turned out to be 33.1 nM and the AUC was found to be 221. Moreover, the “Target Protein Degradation (% remaining at 100 nM, 24 h) JAK1” value in test [2] amounted to 126 % remaining. For the same compound, in test [3], the “Target Protein Degradation (% remaining at 100 nM, 24 h) JAK2” value was determined as 61 % remaining. Further, the remaining activity at 0.1 µM in test [4] was 53%. Also, the remaining activity at 0.1 µM in test [5] stood at 84%.
As to `N#CC[C@@H](C1CCCC1)n1cc(-c2nc(Nc3ccc(C(=O)NCCCN4CCN(c5ccc6c(c5)C(=O)N(C5CCC(=O)NC5=O)C6=O)CC4)cc3)nc3[nH]ccc23)cn1` (stereo partly drawn) [Compound 23], the EC50 in test [1] was determined as 30.9 nM. The AUC in test [1] is reported as 79. Also, the “Target Protein Degradation (% remaining at 100 nM, 24 h) JAK1” value in test [2] is reported as 145 % remaining. For the same compound, the “Target Protein Degradation (% remaining at 100 nM, 24 h) JAK2” value in test [3] was 67 % remaining. The remaining activity at 0.1 µM in test [4] came out at 109%; in test [5], 155%.
On to `CCS(=O)(=O)N1CC(CC#N)(n2cc(-c3nc(Nc4ccc(C(=O)NCCN5CCN(c6cccc(C7CCC(=O)NC7=O)c6)CC5)cc4)nc4[nH]ccc34)cn2)C1` (stereo not drawn) [Compound 40, 4-((4-(1-(3-(cyanomethyl)-1-(ethylsulfonyl)azetidin-3-yl)-1H-pyrazol-4-yl)-7H-pyrrolo[2,3-d]pyrimidin-2-yl)amino)-N-(2-(4-(3-(2,6-dioxopiperidin-3-yl)phenyl)piperazin-1-yl)ethyl)benzamide], for which the concentration for a half-maximal effect (EC50) in test [1] was 1.9 nM. Moreover, the AUC in test [1] is reported as 139. Further, the “Target Protein Degradation (% remaining at 100 nM, 24 h) JAK1” value in test [2] came out at 114 % remaining. The “Target Protein Degradation (% remaining at 100 nM, 24 h) JAK2” value in test [3] is listed as 36 % remaining. For the same compound, the remaining activity at 0.1 µM in test [4] came to 56%; in test [5] it was 88%.
Regarding `CCS(=O)(=O)N1CC(CC#N)(n2cc(-c3nc(Nc4ccc(C(=O)N5CCC6(CC5)CCN(c5ccc(C7CCC(=O)NC7=O)cc5)CC6)cc4)nc4[nH]ccc34)cn2)C1` (stereo not drawn) [Compound 50, 2-(3-(4-(2-((4-(9-(4-(2,6-dioxopiperidin-3-yl)phenyl)-3,9-diazaspiro[5.5]undecane-3-carbonyl)phenyl)amino)-7H-pyrrolo[2,3-d]pyrimidin-4-yl)-1H-pyrazol-1-yl)-1-(ethylsulfonyl)azetidin-3-yl)acetonitrile], in test [1], the half-maximal effective concentration (EC50) amounted to 9 nM and the AUC is 202. In test [2], the “Target Protein Degradation (% remaining at 100 nM, 24 h) JAK1” value came to 85 % remaining. For the same compound, the “Target Protein Degradation (% remaining at 100 nM, 24 h) JAK2” value in test [3] is 11 % remaining. In test [4], the remaining activity at 0.1 µM came out at 28%. For the same compound, in test [5], the remaining activity at 0.1 µM was found to be 137%.
For the compound `CCS(=O)(=O)N1CC(CC#N)(n2cc(-c3nc(Nc4ccc(C(=O)NCCCCCCCNc5cccc(C6CCC(=O)NC6=O)c5)cc4)nc4[nH]ccc34)cn2)C1` (stereo not drawn) [Compound 34], the EC50 in test [1] stood at 31 nM. Besides, the AUC in test [1] is 210. In addition, the “Target Protein Degradation (% remaining at 100 nM, 24 h) JAK1” value in test [2] stood at 90 % remaining. Moreover, in test [3], the “Target Protein Degradation (% remaining at 100 nM, 24 h) JAK2” value was 71 % remaining. Moreover, the remaining activity at 0.1 µM amounted to 69% in test [4] and 74% in test [5].
Turning to `CCS(=O)(=O)N1CC(CC#N)(n2cc(-c3nc(Nc4ccc(C(=O)NCCCCCCNc5ccc(C6CCC(=O)NC6=O)cc5)cc4)nc4[nH]ccc34)cn2)C1` (stereo not drawn) [Compound 1], in test [1], the EC50 came to 0.8 nM and the AUC was 231. In test [2], the “Target Protein Degradation (% remaining at 100 nM, 24 h) JAK1” value is reported as 128 % remaining. For the same compound, the “Target Protein Degradation (% remaining at 100 nM, 24 h) JAK2” value in test [3] amounted to 34 % remaining. Also, in test [4], the remaining activity at 0.1 µM turned out to be 37%. Also, in test [5], the remaining activity at 0.1 µM amounted to 84%.
With `CCS(=O)(=O)N1CC(CC#N)(n2cc(-c3nc(Nc4ccc(C(=O)N5CCC(CN6CCN(c7ccc(C8CCC(=O)NC8=O)cc7)CC6)CC5)cc4)nc4[nH]ccc34)cn2)C1` (stereo not drawn) [Compound 49, 2-(3-(4-(2-((4-(4-((4-(4-(2,6-dioxopiperidin-3-yl)phenyl)piperazin-1-yl)methyl)piperidine-1-carbonyl)phenyl)amino)-7H-pyrrolo[2,3-d]pyrimidin-4-yl)-1H-pyrazol-1-yl)-1-(ethylsulfonyl)azetidin-3-yl)acetonitrile], the EC50 in test [1] is 4 nM. Besides, in test [1], the AUC is 199. The “Target Protein Degradation (% remaining at 100 nM, 24 h) JAK1” value in test [2] turned out to be 59 % remaining. For the same compound, the “Target Protein Degradation (% remaining at 100 nM, 24 h) JAK2” value in test [3] is recorded as 13 % remaining. Also, the remaining activity at 0.1 µM in test [4] was 11%; in test [5], 74%.

For the origin of these results see patent US20240124465A1, “MOLECULES AND METHODS RELATED TO TREATMENT OF DISORDERS ASSOCIATED WITH JAK-2 SIGNALING DYSFUNCTION” (ST. JUDE CHILDREN'S RESEARCH HOSPITAL, priority 2020, published 2024).
